Legend:
hAd4 (RI-67 strain) = assay: Virucidal efficacy: cytopathic effect of pretreated hAd4 in A549 cell monolayers; type: cell-based; settings: hAd4 pretreated 1 h at 35° C.; 10^7 PFU (and 1:10 dilution); A549 lung epithelial cells; 2 days post infection; vs PBS-treated virus (marked CPE)
Procedure: (§1) The experiments included human (hAd) serotypes of species B (hAd3), C (hAd5), and E (hAd4) and the long strain of RSV, representative of A. Two independent experiments were carried out for each virus.
Phosphate buffered saline (PBS) pretreatment of virus suspensions was used as a control.
After the 1-h incubation, 100 μl of the treated virus containing a total of 10^7 to 10^6 plaque forming units (PFU) of virus or their corresponding 1:10 or 1:100 dilutions were used to infect monolayers of A549 lung epithelial cells in quadruplicate 24-well plates. […] Viral cytopathic effect was examined at 2 days post infection. One hundred μl of a dilution 1:10 of the original treated samples containing 10^6 PFU were used to infect additional wells. (C: PBS-treated 1:10; E: SinoFresh® product-treated 1:10; G: CPC-treated 1:10).

RSV (Long strain) = assay: Virucidal efficacy: syncytia formation by pretreated RSV in Hep-2 cell monolayers; type: cell-based; settings: RSV pretreated 1 h at 35° C.; Hep-2 cells; two experiments (starting 10^7 PFU and 109 PFU); 0.05% CPC
Procedure: as §1
One hundred microliters (μl) of each virus suspension containing 5×10^6 PFU or 5×10^5 PFU were subsequently used to infect monolayers of Hep-2 cells in quadruplicate in 24-well plates. […] Viral cytopathic effect was examined at 2 days post infection. One hundred μl of a dilution 1:10 of the original treated samples containing […] were used to infect additional wells (Block C: PBS-treated 1:10; E: SinoFresh® product-treated 1:10; G: CPC-treated 1:10).
A second independent experiment was carried out with a starting concentration of 10^9 PFU.

Structure (SMILES): CCCCCCCCCCCCCCCC[n+]1ccccc1 [CPC, 1-hexa-decyl pyridinium chloride]
- development of cytopathic effect (CPE) (hAd4 (RI-67 strain)): no obvious CPE
- syncytia formation in infected monolayers (RSV (Long strain)): prevented syncytia formation
